Source: PMC10254530, “Design and Synthesis of Brefeldin A-Isothiocyanate Derivatives with Selectivity and Their Potential for Cervical Cancer Therapy” (Molecules, 2023)
Where a name gives a salt, the structure may show the parent alone.

Tests used:
HepG2 cells = test: CCK-8 antiproliferative assay, HepG2; format: cell-based; conditions: Homo sapiens, HepG2; CCK-8, 48 h, mean ± SD of three experiments; read-out: IC50 HepG2
Procedure: (§1) All cells were cultured in Dulbecco’s Modified Eagle’s Medium (DMEM) (Burlington, MA, USA) or Roswell Park Memorial Institute (RPMI)-1640 medium containing 10% fetal bovine serum and 1% penicillin/streptomycin in an incubator at 37 °C and 5% CO2. […] Cell suspension with a concentration of 8 × 10^4 cells/mL was prepared after cell counting. 100 μL cell suspension was added to each well of the 96-well plate and then placed in an incubator overnight. Most of the derivatives were configured into 80 mM, 20 mM or 4 mM stock solution in DMSO, and the stock solution concentration of BFA and paclitaxel was 0.4 mM. […] The medium in each well was discarded, and 100 μL of gradient diluted derivative solution was added (the control group was added with serum-free medium).

MDA-MB-231 cells = test: CCK-8 antiproliferative assay, MDA-MB-231; format: cell-based; conditions: Homo sapiens, MDA-MB-231; CCK-8, 48 h, mean ± SD of three experiments; read-out: IC50 MDA-MB-231
Procedure: as §1

A375 cells = test: CCK-8 antiproliferative assay, A375; format: cell-based; conditions: Homo sapiens, A-375; CCK-8, 48 h, mean ± SD of three experiments; read-out: IC50 A375
Procedure: as §1

A549 cells = test: CCK-8 antiproliferative assay, A549; format: cell-based; conditions: Homo sapiens, A549; CCK-8, 48 h, mean ± SD of three experiments; read-out: IC50 A549
Procedure: as §1

HeLa cells [1] = test: CCK-8 antiproliferative assay, HeLa; format: cell-based, human; conditions: for IC50: Homo sapiens, HeLa, CCK-8, 48 h, mean ± SD of three experiments, read-out: IC50 HeLa; for SIHeLa, selectivity index between L-02 and HeLa: SI = IC50(L-02)/IC50(HeLa)
Procedure: as §1

L-02 cells = test: CCK-8 cytotoxicity assay, normal liver L-02; format: cell-based; conditions: Homo sapiens, L02; CCK-8, 48 h, normal liver cells, mean ± SD of three experiments; read-out: IC50 L-02
Procedure: as §1

HeLa cells [2] = test: Cell cycle analysis, PI staining flow cytometry; format: cell-based, human; conditions: 48 h; for cells in G1 phase: control 33.42%
Procedure: Cell cycle was detected by PI single staining method. Cell suspension with a concentration of 2 × 10^5 cells/mL was prepared after cell counting. 1 mL cell suspension was added to each well of the 6-well plate and then placed in an incubator overnight. The medium in each well was discarded, and 1 mL of gradient diluted derivative solution 6 (0, 0.46, 0.92 and 1.84 µM) was added (the control group was added with serum-free medium). According to the manual of Cell Cycle Detection Kit KGA511, after 48 h, HeLa cells were collected and fixed with 70% ethanol for 2 h. After centrifugation, 100 μL RNase A (working concentration 20 μg/mL) was added and placed in a 37 °C water bath for 30 min. Then 400 μL PI staining (working concentration 50 μg/mL) was added and mixed, centrifugal tube was placed in the dark at 4 °C for 30 min. Red fluorescence at the excitation wavelength of 488 nm was recorded by flow cytometry.

HeLa cells [3] = test: Hoechst 33258 staining assay; format: cell-based, human; conditions: HeLa, 0.46, 0.92 and 1.84 µM, 48 h
Procedure: HeLa cells in 6-well plates were collected after administration. According to the manual of Apoptotic Cell Hoechst 33258 Detection Kit KGA211, HeLa cells were fixed with paraformaldehyde for 30 min. After centrifugation, HeLa cells were soaked in PBS for 5 min and washed 3 times. An appropriate amount of Hoechst 33258 staining solution (working concentration 0.5 μg/mL) was added so that fully covers the HeLa cells and then the cells were left at room temperature for 10 min. After dyeing, HeLa cells were soaked in PBS for 5 min and washed 3 times. Observation under an Olympus (Tokyo, Japan) IX73 fluorescence microscope after sealing with an anti-fluorescence quenching sealing solution (glycerol:PBS = 1:9).

HeLa cells [4] = test: Annexin V-FITC/PI apoptosis analysis, flow cytometry; format: cell-based, human; conditions: 48 h, control 3.21%
Procedure: According to the manual of Annexin V-FITC/PI Apoptosis Detection Kit KGA105, HeLa cells in 6-well plates were collected by 0.25% trypsin without EDTA (in PBS) digestion after 48 h administration by the above method. After washing with PBS 3 times, 500 μL Binding Buffer was added to suspend HeLa cells. Then Annexin V-FITC and PI were added successively in dark for 15 min, and HeLa cell apoptosis was detected by BD FACSVerse flow cytometer.

HeLa cells [5] = test: Mitochondrial membrane potential analysis, JC-1 staining; format: cell-based, human; conditions: 48 h; for JC-1 quadrant Q1-LL / JC-1 quadrant Q1-UL: control 0.00%; for JC-1 green fluorescent cells (decreased mitochondrial membrane potential), quadrant Q1-LR: control 4.07%; for JC-1 quadrant Q1-UR: control 95.93%
Procedure: Mitochondrial membrane potential was detected by the JC-1 staining method. According to the manual of JC-1 Apoptosis Detection Kit KGA601, HeLa cells in 6-well plates were collected by 0.25% trypsin without EDTA (in PBS) digestion after 48 h administration. The Incubation Buffer was prepared according to the instructions, mixing and preheating to 37 °C. 500 μL 1 × Incubation Buffer was mixed with 1 μL JC-1 (working concentration 10 μg/mL) to suspend HeLa cells and then the cells were incubated for 20 min. Cells were collected by centrifugation at room temperature, washed twice with 1 × Incubation Buffer and then detected by BD FACSVerse flow cytometer.

C[C@H]1CCC/C=C/[C@@H]2C[C@H](O)C[C@H]2[C@H](OC(=O)c2ccc(N=C=S)cc2)/C=C/C(=O)O1 [Compound 6, (1R,2E,6S,10E,11aS,13S,14aR)-13-Hydroxy-6-methyl-4-oxo-1,6,7,8,9,11a,12,13,14,14a-decahydro-4H-cyclopenta[f][1]oxacyclotridecin-1-yl 4-isothiocyanatobenzoate]
IC50 (HepG2 cells): 20.8 ± 1.22 µM
IC50 (MDA-MB-231 cells): 6.83 ± 0.61 µM
IC50 (A375 cells): 3.08 ± 0.43 µM
IC50 (A549 cells): 7.18 ± 0.51 µM
IC50 (HeLa cells [1]): 1.84 ± 0.08 µM
IC50 (L-02 cells): > 80 µM
cells in G1 phase (HeLa cells [2]; 0.46 µM): 43.39%
cells in G1 phase (HeLa cells [2]; 0.92 µM): 49.55%
cells in G2 phase (HeLa cells [2]; 1.84 µM, control 22.94%): 12.50%
cells in G1 phase (HeLa cells [2]; 1.84 µM): 60.80%
cells in S phase (HeLa cells [2]; 1.84 µM, control 43.64%): 26.70%
nuclear morphology, Hoechst33258 staining (HeLa cells [3]): nuclear fragmentation
percentage of cells in the early and late stages of apoptosis (HeLa cells [4]; 0.46 µM): 16.04%
percentage of cells in the early and late stages of apoptosis (HeLa cells [4]; 0.92 µM): 26.41%
percentage of cells in the early and late stages of apoptosis (HeLa cells [4]; 1.84 µM): 39.03%
JC-1 quadrant Q1-LL (HeLa cells [5]; 0.46 µM): 0.00%
JC-1 quadrant Q1-UL (HeLa cells [5]; 0.46 µM): 0.00%
JC-1 green fluorescent cells (decreased mitochondrial membrane potential), quadrant Q1-LR (HeLa cells [5]; 0.46 µM): 13.88%
JC-1 quadrant Q1-UR (HeLa cells [5]; 0.46 µM): 86.12%
JC-1 quadrant Q1-LL (HeLa cells [5]; 0.92 µM): 0.00%
JC-1 quadrant Q1-UL (HeLa cells [5]; 0.92 µM): 0.00%
JC-1 green fluorescent cells (decreased mitochondrial membrane potential), quadrant Q1-LR (HeLa cells [5]; 0.92 µM): 24.80%
JC-1 quadrant Q1-UR (HeLa cells [5]; 0.92 µM): 75.20%
JC-1 quadrant Q1-LL (HeLa cells [5]; 1.84 µM): 0.00%
JC-1 quadrant Q1-UL (HeLa cells [5]; 1.84 µM): 0.00%
JC-1 green fluorescent cells (decreased mitochondrial membrane potential), quadrant Q1-LR (HeLa cells [5]; 1.84 µM): 39.69%
JC-1 quadrant Q1-UR (HeLa cells [5]; 1.84 µM): 60.31%

C[C@H]1CCC/C=C/[C@@H]2C[C@H](OC(=O)CCC(=O)OCCOC(=O)c3ccc(N=C=S)cc3)C[C@H]2[C@H](OC(=O)CCC(=O)OCCOC(=O)c2ccc(N=C=S)cc2)/C=C/C(=O)O1 [Compound 8a, Bis(2-((4-isothiocyanatobenzoyl)oxy)ethyl) O,O’-((1R,2E,6S,10E,11aS,13S,14aR)-6-methyl-4-oxo-1,6,7,8,9,11a,12,13,14,14a-decahydro-4H-cyclopenta[f][1]oxacyclotridecine-1,13-diyl) disuccinate]
IC50 (HepG2 cells): > 40 µM
IC50 (MDA-MB-231 cells): > 40 µM
IC50 (A375 cells): > 40 µM
IC50 (A549 cells): > 40 µM
IC50 (HeLa cells [1]): 12 ± 1.47 µM
SIHeLa, selectivity index between L-02 and HeLa (HeLa cells [1]): >6.68
IC50 (L-02 cells): > 80 µM

C[C@H]1CCC/C=C/[C@@H]2C[C@H](O)C[C@H]2[C@H](OC(=O)/C=C\C(=O)OCCCCOC(=O)c2ccc(N=C=S)cc2)/C=C/C(=O)O1 [Compound 9h, (1R,2E,6S,10E,11aS,13S,14aR)-13-Hydroxy-6-methyl-4-oxo-1,6,7,8,9,11a,12,13,14,14a-decahydro-4H-cyclopenta[f][1]oxacyclotridecin-1-yl (4-((4-isothiocyanatobenzoyl)oxy)butyl) maleate]
IC50 (HepG2 cells): 13.27 ± 0.1 µM
IC50 (MDA-MB-231 cells): 5.71 ± 0.2 µM
IC50 (A375 cells): 11.2 ± 0.29 µM
IC50 (A549 cells): 8.54 ± 0.26 µM
IC50 (HeLa cells [1]): 9.68 ± 0.24 µM
SIHeLa, selectivity index between L-02 and HeLa (HeLa cells [1]): 2.87
IC50 (L-02 cells): 27.8 ± 1.39 µM

C[C@H]1CCC/C=C/[C@@H]2C[C@H](OC(=O)/C=C\C(=O)OCCCCOC(=O)c3ccc(N=C=S)cc3)C[C@H]2[C@H](OC(=O)/C=C\C(=O)OCCCCOC(=O)c2ccc(N=C=S)cc2)/C=C/C(=O)O1 [Compound 8h, Bis(4-((4-isothiocyanatobenzoyl)oxy)butyl) O,O’-((1R,2E,6S,10E,11aS,13S,14aR)-6-methyl-4-oxo-1,6,7,8,9,11a,12,13,14,14a-decahydro-4H-cyclopenta[f][1]oxacyclotridecine-1,13-diyl) dimaleate]
IC50 (HepG2 cells): > 40 µM
IC50 (MDA-MB-231 cells): > 40 µM
IC50 (A375 cells): > 40 µM
IC50 (A549 cells): > 40 µM
IC50 (HeLa cells [1]): 8.48 ± 0.72 µM
IC50 (L-02 cells): > 80 µM

C[C@H]1CCC/C=C/[C@@H]2C[C@H](OC(=O)CCC(=O)OCCCCCCOC(=O)c3ccc(N=C=S)cc3)C[C@H]2[C@H](OC(=O)CCC(=O)OCCCCCCOC(=O)c2ccc(N=C=S)cc2)/C=C/C(=O)O1 [Compound 8e, Bis(6-((4-isothiocyanatobenzoyl)oxy)hexyl) O,O’-((1R,2E,6S,10E,11aS,13S,14aR)-6-methyl-4-oxo-1,6,7,8,9,11a,12,13,14,14a-decahydro-4H-cyclopenta[f][1]oxacyclotridecine-1,13-diyl) disuccinate]
IC50 (HepG2 cells): > 40 µM
IC50 (MDA-MB-231 cells): > 40 µM
IC50 (A375 cells): > 40 µM
IC50 (A549 cells): > 40 µM
IC50 (HeLa cells [1]): 26.8 ± 0.7 µM
SIHeLa, selectivity index between L-02 and HeLa (HeLa cells [1]): >2.99
IC50 (L-02 cells): > 80 µM

C[C@H]1CCC/C=C/[C@@H]2C[C@H](OC(=O)CCC(=O)OCC#CCOC(=O)c3ccc(N=C=S)cc3)C[C@H]2[C@H](OC(=O)CCC(=O)OCC#CCOC(=O)c2ccc(N=C=S)cc2)/C=C/C(=O)O1 [Compound 8c, Bis(4-((4-isothiocyanatobenzoyl)oxy)but-2-yn-1-yl) O,O’-((1R,2E,6S,10E,11aS,13S,14aR)-6-methyl-4-oxo-1,6,7,8,9,11a,12,13,14,14a-decahydro-4H-cyclopenta[f][1]oxacyclotridecine-1,13-diyl) disuccinate]
IC50 (HepG2 cells): > 40 µM
IC50 (MDA-MB-231 cells): > 40 µM
IC50 (A375 cells): > 40 µM
IC50 (A549 cells): > 40 µM
IC50 (HeLa cells [1]): 39 ± 1.43 µM
SIHeLa, selectivity index between L-02 and HeLa (HeLa cells [1]): >2.05
IC50 (L-02 cells): > 80 µM

C[C@H]1CCC/C=C/[C@@H]2C[C@H](O)C[C@H]2[C@H](OC(=O)CCC(=O)OCCOCCOC(=O)c2ccc(N=C=S)cc2)/C=C/C(=O)O1 [Compound 9d, (1R,2E,6S,10E,11aS,13S,14aR)-13-Hydroxy-6-methyl-4-oxo-1,6,7,8,9,11a,12,13,14,14a-decahydro-4H-cyclopenta[f][1]oxacyclotridecin-1-yl (2-(2-((4-isothiocyanatobenzoyl)oxy)ethoxy)ethyl) succinate]
IC50 (HepG2 cells): 2.34 ± 0.31 µM
IC50 (MDA-MB-231 cells): 2.05 ± 0.27 µM
IC50 (A375 cells): 2.93 ± 0.12 µM
IC50 (A549 cells): 2.85 ± 0.1 µM
IC50 (HeLa cells [1]): 0.99 ± 0.02 µM
IC50 (L-02 cells): 9.18 ± 0.13 µM

C[C@H]1CCC/C=C/[C@@H]2C[C@H](OC(=O)/C=C\C(=O)OCCOC(=O)c3ccc(N=C=S)cc3)C[C@H]2[C@H](OC(=O)/C=C\C(=O)OCCOC(=O)c2ccc(N=C=S)cc2)/C=C/C(=O)O1 [Compound 8g, Bis(2-((4-isothiocyanatobenzoyl)oxy)ethyl) O,O’-((1R,2E,6S,10E,11aS,13S,14aR)-6-methyl-4-oxo-1,6,7,8,9,11a,12,13,14,14a-decahydro-4H-cyclopenta[f][1]oxacyclotridecine-1,13-diyl) dimaleate]
IC50 (HepG2 cells): > 40 µM
IC50 (MDA-MB-231 cells): > 40 µM
IC50 (A375 cells): > 40 µM
IC50 (A549 cells): > 40 µM
IC50 (HeLa cells [1]): 9.74 ± 0.37 µM
SIHeLa, selectivity index between L-02 and HeLa (HeLa cells [1]): >8.21
IC50 (L-02 cells): > 80 µM
